Laboratory results reported in PubChem BioAssay AID1963980 (Molecular Pharmacology Branch, DTP, NCI, 2024).
Each block holds one molecule with its values, some of them ahead of it.

Test system: 475296-252-R-J1-PDC spheroid viability
Assay: Anticancer human tumor 475296-252-R-J1-PDC patient-derived rectal carcinoma cell line growth inhibition [PI3K]
Conditions: spheroids with HUVEC and MSC; for IC50: curve of first compound; for viability, T/C: stronger effect = lower value
Outline: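 Complex 3D spheroids (cancer cells + endothelial HUVEC + mesenchymal stem cells); drug pairs of targeted agent x inavolisib/alpelisib/duvelisib/copanlisib; half-log series from ~Cmax, max 10 microM if Cmax unknown; endpoint viability.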

[1] = second compound 0.0316 µM, first compound 0.0316 µM
[2] = second compound 0.0316 µM, first compound 0.1 µM
[3] = second compound 0.0316 µM, first compound 0.316 µM
[4] = second compound 0.0316 µM, first compound 1 µM
[5] = second compound 0.0316 µM, first compound 3.16 µM
[6] = second compound 0.0316 µM, first compound 10 µM
[7] = second compound 0.1 µM, first compound 0.0316 µM
[8] = second compound 0.1 µM, first compound 0.1 µM
[9] = second compound 0.1 µM, first compound 0.316 µM
[10] = second compound 0.1 µM, first compound 1 µM
[11] = second compound 0.1 µM, first compound 3.16 µM
[12] = second compound 0.1 µM, first compound 10 µM
[13] = second compound 0.316 µM, first compound 0.0316 µM
[14] = second compound 0.316 µM, first compound 0.1 µM
[15] = second compound 0.316 µM, first compound 0.316 µM
[16] = second compound 0.316 µM, first compound 1 µM
[17] = second compound 0.316 µM, first compound 3.16 µM
[18] = second compound 0.316 µM, first compound 10 µM
[19] = second compound 1 µM, first compound 0.0316 µM
[20] = second compound 1 µM, first compound 0.1 µM
[21] = second compound 1 µM, first compound 0.316 µM
[22] = second compound 1 µM, first compound 1 µM
[23] = second compound 1 µM, first compound 3.16 µM
[24] = second compound 1 µM, first compound 10 µM
[25] = second compound 3.16 µM, first compound 0.0316 µM
[26] = second compound 3.16 µM, first compound 0.1 µM
[27] = second compound 3.16 µM, first compound 0.316 µM
[28] = second compound 3.16 µM, first compound 1 µM
[29] = second compound 3.16 µM, first compound 3.16 µM
[30] = second compound 3.16 µM, first compound 10 µM
[31] = second compound 10 µM, first compound 0.0316 µM
[32] = second compound 10 µM, first compound 0.1 µM
[33] = second compound 10 µM, first compound 0.316 µM
[34] = second compound 10 µM, first compound 1 µM
[35] = second compound 10 µM, first compound 3.16 µM
[36] = second compound 10 µM, first compound 10 µM
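Note: spheroids exposed to agents for seven days before readout.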

IC50 (second compound 0.0316 µM): > 10 µM
IC50 (second compound 0.1 µM): > 10 µM
IC50 (second compound 0.316 µM): > 10 µM
IC50 (second compound 1 µM): > 10 µM
IC50 (second compound 3.16 µM): > 10 µM
IC50 (second compound 10 µM): > 10 µM
Compound: C=CC(=O)N1CCN(c2nc(=O)n(-c3c(C)ccnc3C(C)C)c3nc(-c4c(O)cccc4F)c(F)cc23)C(C)C1 (stereo not drawn) + Cc1nc(NC(=O)N2CCCC2C(N)=O)sc1-c1ccnc(C(C)(C)C(F)(F)F)c1
viability, T/C [1]: 90%
viability, T/C [2]: 79.2%
viability, T/C [3]: 99.9%
viability, T/C [4]: 89.7%
viability, T/C [5]: 106%
viability, T/C [6]: 102%
viability, T/C [7]: 105%
viability, T/C [8]: 75.8%
viability, T/C [9]: 106%
viability, T/C [10]: 82%
viability, T/C [11]: 104%
viability, T/C [12]: 108%
viability, T/C [13]: 90.4%
viability, T/C [14]: 107%
viability, T/C [15]: 96.4%
viability, T/C [16]: 103%
viability, T/C [17]: 96.8%
viability, T/C [18]: 95%
viability, T/C [19]: 88%
viability, T/C [20]: 94.1%
viability, T/C [21]: 99.8%
viability, T/C [22]: 97.5%
viability, T/C [23]: 109%
viability, T/C [24]: 95.8%
viability, T/C [25]: 83.6%
viability, T/C [26]: 85%
viability, T/C [27]: 95.2%
viability, T/C [28]: 87.2%
viability, T/C [29]: 92.9%
viability, T/C [30]: 93.8%
viability, T/C [31]: 94.6%
viability, T/C [32]: 87.8%
viability, T/C [33]: 95.5%
viability, T/C [34]: 94.2%
viability, T/C [35]: 95.2%
viability, T/C [36]: 80.6%

IC50 (second compound 0.0316 µM): > 1 µM
IC50 (second compound 0.1 µM): > 1 µM
IC50 (second compound 0.316 µM): > 1 µM
IC50 (second compound 1 µM): > 1 µM
IC50 (second compound 3.16 µM): > 1 µM
IC50 (second compound 10 µM): > 1 µM
Compound: CCN1CCN(Cc2ccc(Nc3ncc(F)c(-c4cc(F)c5nc(C)n(C(C)C)c5c4)n3)nc2)CC1 + Cc1nc(NC(=O)N2CCCC2C(N)=O)sc1-c1ccnc(C(C)(C)C(F)(F)F)c1
viability, T/C (second compound 0.0316 µM, first compound 0.00316 µM): 95.8%
viability, T/C (second compound 0.0316 µM, first compound 0.01 µM): 93.4%
viability, T/C [1]: 107%
viability, T/C [2]: 90%
viability, T/C [3]: 114%
viability, T/C [4]: 104%
viability, T/C (second compound 0.1 µM, first compound 0.00316 µM): 95.8%
viability, T/C (second compound 0.1 µM, first compound 0.01 µM): 97.8%
viability, T/C [7]: 112%
viability, T/C [8]: 90.4%
viability, T/C [9]: 98.8%
viability, T/C [10]: 84.3%
viability, T/C (second compound 0.316 µM, first compound 0.00316 µM): 107%
viability, T/C (second compound 0.316 µM, first compound 0.01 µM): 105%
viability, T/C [13]: 87.6%
viability, T/C [14]: 99.4%
viability, T/C [15]: 98%
viability, T/C [16]: 88.6%
viability, T/C (second compound 1 µM, first compound 0.00316 µM): 81.4%
viability, T/C (second compound 1 µM, first compound 0.01 µM): 90.5%
viability, T/C [19]: 98.7%
viability, T/C [20]: 88.5%
viability, T/C [21]: 89.2%
viability, T/C [22]: 87.7%
viability, T/C (second compound 3.16 µM, first compound 0.00316 µM): 98.2%
viability, T/C (second compound 3.16 µM, first compound 0.01 µM): 108%
viability, T/C [25]: 82.5%
viability, T/C [26]: 95%
viability, T/C [27]: 90.7%
viability, T/C [28]: 73.1%
viability, T/C (second compound 10 µM, first compound 0.00316 µM): 93.3%
viability, T/C (second compound 10 µM, first compound 0.01 µM): 88.3%
viability, T/C [31]: 96.7%
viability, T/C [32]: 81.1%
viability, T/C [33]: 90.4%
viability, T/C [34]: 70.4%

IC50 (second compound 0.0316 µM): > 10 µM
IC50 (second compound 0.1 µM): > 10 µM
IC50 (second compound 0.316 µM): > 10 µM
IC50 (second compound 1 µM): > 10 µM
IC50 (second compound 3.16 µM): 8.01 µM
IC50 (second compound 10 µM): 4.16 µM
Compound: Cn1ncc(Cl)c1-c1cc(C(=O)NC(CN)Cc2cccc(F)c2)sc1Cl (stereo not drawn) + Cc1nc(NC(=O)N2CCCC2C(N)=O)sc1-c1ccnc(C(C)(C)C(F)(F)F)c1
viability, T/C [1]: 91.1%
viability, T/C [2]: 74.3%
viability, T/C [3]: 75.3%
viability, T/C [4]: 67.1%
viability, T/C [5]: 71.3%
viability, T/C [6]: 67.4%
viability, T/C [7]: 96.9%
viability, T/C [8]: 85.2%
viability, T/C [9]: 66.8%
viability, T/C [10]: 54%
viability, T/C [11]: 64.4%
viability, T/C [12]: 67.4%
viability, T/C [13]: 77.6%
viability, T/C [14]: 83.5%
viability, T/C [15]: 73.4%
viability, T/C [16]: 55.9%
viability, T/C [17]: 67.3%
viability, T/C [18]: 54%
viability, T/C [19]: 84.5%
viability, T/C [20]: 85.4%
viability, T/C [21]: 78%
viability, T/C [22]: 58.5%
viability, T/C [23]: 62.8%
viability, T/C [24]: 51.2%
viability, T/C [25]: 83.1%
viability, T/C [26]: 78.8%
viability, T/C [27]: 84.2%
viability, T/C [28]: 67%
viability, T/C [29]: 61.5%
viability, T/C [30]: 47.2%
viability, T/C [31]: 84.8%
viability, T/C [32]: 78.8%
viability, T/C [33]: 81.7%
viability, T/C [34]: 69.3%
viability, T/C [35]: 57.6%
viability, T/C [36]: 28.5%

IC50 (second compound 0.0316 µM): > 10 µM
IC50 (second compound 0.1 µM): > 10 µM
IC50 (second compound 0.316 µM): > 10 µM
IC50 (second compound 1 µM): > 10 µM
IC50 (second compound 3.16 µM): > 10 µM
IC50 (second compound 10 µM): 1.44 µM
Compound: Cn1nccc1Nc1nccc(-c2ccn(C(CO)c3ccc(Cl)c(F)c3)c(=O)c2)n1 (stereo not drawn) + Cc1nc(NC(=O)N2CCCC2C(N)=O)sc1-c1ccnc(C(C)(C)C(F)(F)F)c1
viability, T/C [1]: 108%
viability, T/C [2]: 94.2%
viability, T/C [3]: 106%
viability, T/C [4]: 88.9%
viability, T/C [5]: 99.6%
viability, T/C [6]: 79.2%
viability, T/C [7]: 95.8%
viability, T/C [8]: 87.3%
viability, T/C [9]: 94.6%
viability, T/C [10]: 91.4%
viability, T/C [11]: 99.6%
viability, T/C [12]: 75.9%
viability, T/C [13]: 105%
viability, T/C [14]: 108%
viability, T/C [15]: 87.2%
viability, T/C [16]: 85%
viability, T/C [17]: 81.1%
viability, T/C [18]: 68.5%
viability, T/C [19]: 92.1%
viability, T/C [20]: 91.5%
viability, T/C [21]: 91%
viability, T/C [22]: 84.5%
viability, T/C [23]: 88%
viability, T/C [24]: 59.9%
viability, T/C [25]: 85.9%
viability, T/C [26]: 89.3%
viability, T/C [27]: 79.8%
viability, T/C [28]: 79.1%
viability, T/C [29]: 58.8%
viability, T/C [30]: 50.7%
viability, T/C [31]: 87.7%
viability, T/C [32]: 86%
viability, T/C [33]: 83.7%
viability, T/C [34]: 63.1%
viability, T/C [35]: 21.8%
viability, T/C [36]: 8.46%
